This is an account of results in paper PMC9889419 (Pharmacological Reports, 2022).

For one data set, the system named is NIE-115 cells. Nature of the data set: Patch-clamp (sodium currents). To be noted: 100 µM. The format is cell-based.
For a further data set, the system named is Frings mice. Nature of the data set: Frings mice sound-induced seizures. Conditions: ip. The format is in vivo.
A further data set concerns the target T1, PAC1 (PACAP) (Homo sapiens, UniProt P41586).
T1 construct: purchased Eurofins CEREP
Nature of the data set: Radioligand binding. Conditions: 100 μM.

For the next data set, the target named is T2, A3 (Homo sapiens, UniProt P0DMS8).
T2 construct: purchased Eurofins CEREP
Nature of the data set: Radioligand binding. Conditions: 100 μM.

Another data set has as its target T3, ETA (Homo sapiens, UniProt P25101).
T3 construct: purchased Eurofins CEREP
Briefly: Radioligand binding. Conditions: 100 μM.

The target of another data set is T4, GAL1 (Homo sapiens, UniProt P47211).
T4 construct: purchased Eurofins CEREP
Nature of the data set: Radioligand binding. Conditions: 100 μM.

The target in another data set is T5, β1 (Homo sapiens, UniProt P08588).
T5 construct: purchased Eurofins CEREP
Briefly: Radioligand binding. Conditions: 100 μM.

A further data set has as its system NMDA. Nature of the data set: Electrophysiology studies (Test 17). The format is cell-based. Conditions: 100 uM, holding potential -70 mV. The source says: Solvent Code: DMSO Solvent Prep: 257.759
Test Add CompoundConc.(uM) # Cells % Control +/- SEM
(1 picture or pasted object on this page, not shown here)

Data set [1] relates to normotensive anaesthetized rats. Nature of the data set: Influence on blood pressure. It counts as in vivo. To be noted: 5 mg/kg iv, immediately after administration. The procedure: Influence on blood pressure in rats. Rats were anaesthetized with thiopental (75 mg/kg ip). The right carotid artery was cannulated with polyethylene tube filled with heparin in saline to facilitate pressure measurements using a Datamax apparatus (Columbus Instruments).

The target of a further data set is T6, hNav1.3 sodium channel (Homo sapiens, UniProt Q9NY46).
T6 construct: host or cells: CHO cells
Nature of the data set: Nav channel electrophysiology (IonWorks Quattro). The format is cell-based.

A further data set can be described thus: Acute toxicity (LD50). Conditions: in vivo; for LD50 at 24 h: iv; for LD50 at 72 h: po. The method, then:
Acute toxicity. The tested compounds were dissolved in 0.9% saline and administered po and injected into the caudal vein (iv) of mouse or rats at the constant volume of 10 mL/kg and 1 mL/kg, respectively. Each dose was given to six animals.

Data set [2] in a line: Forced degradation studies (HPLC). The format is physicochemical. The method, then:
HPLC conditions and equipment. The liquid chromatography system HITACHI High-Technologies Corporation (Tokyo, Japan) equipped with a solvent delivery pump (L-2130), a degasser, an autosampler (L-2200), a photodiode array detector (L-2455) and a column oven (L-2350) was used. […] The injection volume was 20 µL. Based on the registered absorption spectrum detection wavelength was selected as 230 nm. The analysis time was 15 min.
Irradiation conditions. Irradiation was conducted in a climatic chamber KBF-ICH 240 APT.lineTM (Binder GmbH, Tuttlingen, Germany) at 25 °C and 60% humidity using UVA radiation (320–400 nm) with maximum emission at 365 nm. The intensity of radiation was determined using a radiometer type VLX-3 W, Vilber Lourmat, with a CX-365 sensor, to be each time of […]. The distance between the samples and the radiation source was 13 cm.
Degradation in acidic solution. […] 8 mL of the examined solution was transferred to a glass vial and heated in an oven at 70 °C. The sample volume of 0.5 mL was taken and diluted with 0.5 mL of water. The solution was analyzed three times by HPLC method.
Degradation in basic solution. […] 4 mL of examined solution was transferred to glass vials of 8 mL capacity and heated in an oven at 70 °C. The volume of 0.5 mL was taken and diluted with 0.5 mL of 0.5 M HCl. The solution was analyzed three times by HPLC method.
Degradation in phosphate buffer at pH = 7.0. […] The volume of 8 mL of examined solution was transferred to glass vials of 8 mL capacity and stored in a dark place at 25 °C or heated in an oven at 70 °C. The volume of 0.5 mL of solution was taken and diluted with 0.5 mL of water. The solution was analyzed by HPLC method.
Degradation in the presence of oxidative agent. […] The samples were stored at 25 °C. The volume of 0.5 mL of solution was taken and diluted with 0.5 mL of water. The solution was analyzed three times by HPLC method. […] The volume of 8 mL of examined solution was transferred to glass vials of 8 mL capacity and heated in an oven at 40 °C. The volume of 0.5 mL of solution was taken and diluted with 0.5 mL of water. The solution was analyzed by HPLC method.
Degradation in the presence of reducing agent. […] 8 mL of the examined solution was transferred to 8 mL glass vials and stored at 25 °C and 40 °C. The volume of 0.5 mL of solution was taken and diluted with 0.5 mL of water. The solution was analyzed three times by HPLC method.
Photodegradation under UV irradiation. […] 2 mL of the examined solution was transferred to a quartz Petri-dishes with diameter 4 cm and sealed with parafilm. Dark control samples were prepared in the same way, but they were secured with aluminum foil. The examined samples and the dark control samples were placed in a climatic chamber at […] and humidity 60% and irradiated for 96 h. The volume of 0.5 mL of solution was taken to the vials and the solution was analyzed by HPLC method.

Counter-ions that a name gives are not always drawn. Some results are limits rather than exact numbers.

T6 sequence (Q9NY46 whole entry): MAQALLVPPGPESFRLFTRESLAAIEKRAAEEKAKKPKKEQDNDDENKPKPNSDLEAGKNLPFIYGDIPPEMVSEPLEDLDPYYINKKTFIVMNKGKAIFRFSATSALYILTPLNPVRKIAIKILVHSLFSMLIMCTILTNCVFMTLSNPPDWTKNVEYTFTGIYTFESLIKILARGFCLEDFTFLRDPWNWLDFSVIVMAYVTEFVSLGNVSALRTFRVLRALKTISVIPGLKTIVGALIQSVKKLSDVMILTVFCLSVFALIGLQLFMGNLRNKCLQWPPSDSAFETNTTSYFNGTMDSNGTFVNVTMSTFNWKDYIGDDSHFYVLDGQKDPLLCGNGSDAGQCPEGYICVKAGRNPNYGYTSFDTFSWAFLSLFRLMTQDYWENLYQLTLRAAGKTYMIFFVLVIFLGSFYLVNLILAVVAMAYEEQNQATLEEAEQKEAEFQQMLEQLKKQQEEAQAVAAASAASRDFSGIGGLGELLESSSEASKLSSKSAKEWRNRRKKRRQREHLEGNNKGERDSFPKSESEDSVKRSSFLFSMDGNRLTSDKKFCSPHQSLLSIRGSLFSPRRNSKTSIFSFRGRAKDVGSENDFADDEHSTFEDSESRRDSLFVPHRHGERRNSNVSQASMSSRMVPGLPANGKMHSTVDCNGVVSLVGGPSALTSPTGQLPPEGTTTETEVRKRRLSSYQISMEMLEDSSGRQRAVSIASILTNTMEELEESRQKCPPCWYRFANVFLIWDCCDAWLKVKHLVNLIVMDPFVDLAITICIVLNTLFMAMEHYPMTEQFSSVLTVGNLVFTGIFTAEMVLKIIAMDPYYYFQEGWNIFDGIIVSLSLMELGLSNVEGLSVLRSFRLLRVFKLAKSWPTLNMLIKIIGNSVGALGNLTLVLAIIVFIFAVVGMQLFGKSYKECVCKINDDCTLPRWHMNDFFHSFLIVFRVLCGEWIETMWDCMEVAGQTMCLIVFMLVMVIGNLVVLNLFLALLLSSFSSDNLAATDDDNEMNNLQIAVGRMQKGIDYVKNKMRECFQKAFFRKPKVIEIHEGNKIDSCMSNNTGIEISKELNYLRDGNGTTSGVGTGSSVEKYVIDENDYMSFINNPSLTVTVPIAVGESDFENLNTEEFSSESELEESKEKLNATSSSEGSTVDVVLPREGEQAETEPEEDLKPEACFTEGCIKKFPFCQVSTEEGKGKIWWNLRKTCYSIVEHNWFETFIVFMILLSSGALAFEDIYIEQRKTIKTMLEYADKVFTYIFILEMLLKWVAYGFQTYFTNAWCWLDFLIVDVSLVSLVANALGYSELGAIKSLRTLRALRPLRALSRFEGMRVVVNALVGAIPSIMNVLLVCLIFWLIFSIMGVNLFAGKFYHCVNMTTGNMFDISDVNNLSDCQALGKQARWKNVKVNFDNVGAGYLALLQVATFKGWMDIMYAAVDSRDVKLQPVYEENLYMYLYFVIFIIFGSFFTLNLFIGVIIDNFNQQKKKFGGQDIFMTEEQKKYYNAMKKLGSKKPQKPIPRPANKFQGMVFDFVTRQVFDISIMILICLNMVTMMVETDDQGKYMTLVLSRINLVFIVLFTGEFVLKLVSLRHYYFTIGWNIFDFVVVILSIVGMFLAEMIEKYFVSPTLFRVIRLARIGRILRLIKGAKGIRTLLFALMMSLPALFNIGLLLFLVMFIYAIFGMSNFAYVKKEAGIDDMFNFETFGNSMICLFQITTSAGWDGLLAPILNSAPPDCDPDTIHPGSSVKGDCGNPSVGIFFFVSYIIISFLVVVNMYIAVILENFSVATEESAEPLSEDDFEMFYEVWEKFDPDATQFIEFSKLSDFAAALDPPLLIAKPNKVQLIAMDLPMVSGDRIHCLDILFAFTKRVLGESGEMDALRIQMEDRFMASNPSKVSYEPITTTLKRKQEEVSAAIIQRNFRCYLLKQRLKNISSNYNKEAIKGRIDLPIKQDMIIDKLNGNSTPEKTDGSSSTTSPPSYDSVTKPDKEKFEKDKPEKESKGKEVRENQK
T1 sequence (P41586 21-468): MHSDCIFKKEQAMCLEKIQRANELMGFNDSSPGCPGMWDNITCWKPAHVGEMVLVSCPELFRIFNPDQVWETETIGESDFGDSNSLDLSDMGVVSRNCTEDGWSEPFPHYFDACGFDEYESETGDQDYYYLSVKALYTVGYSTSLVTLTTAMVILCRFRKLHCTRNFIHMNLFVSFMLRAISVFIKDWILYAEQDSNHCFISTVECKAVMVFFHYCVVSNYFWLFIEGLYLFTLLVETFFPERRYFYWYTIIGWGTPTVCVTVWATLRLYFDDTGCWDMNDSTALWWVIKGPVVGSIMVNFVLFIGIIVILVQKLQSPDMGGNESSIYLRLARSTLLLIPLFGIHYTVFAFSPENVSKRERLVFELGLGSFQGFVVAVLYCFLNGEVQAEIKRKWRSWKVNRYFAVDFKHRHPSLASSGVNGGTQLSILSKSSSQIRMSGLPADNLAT
T3 sequence (P25101 21-427): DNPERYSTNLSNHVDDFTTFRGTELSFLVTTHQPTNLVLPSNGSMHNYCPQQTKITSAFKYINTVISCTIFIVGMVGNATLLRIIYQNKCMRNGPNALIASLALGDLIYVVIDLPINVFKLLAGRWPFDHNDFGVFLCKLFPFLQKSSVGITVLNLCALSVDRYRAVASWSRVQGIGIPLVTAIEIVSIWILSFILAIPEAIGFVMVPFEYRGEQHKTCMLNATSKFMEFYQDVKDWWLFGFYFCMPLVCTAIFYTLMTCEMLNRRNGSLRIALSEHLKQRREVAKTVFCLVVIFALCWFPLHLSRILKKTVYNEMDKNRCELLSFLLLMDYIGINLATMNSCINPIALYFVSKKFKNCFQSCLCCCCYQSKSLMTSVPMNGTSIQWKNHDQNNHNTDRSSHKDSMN
T5 sequence (P08588 whole entry): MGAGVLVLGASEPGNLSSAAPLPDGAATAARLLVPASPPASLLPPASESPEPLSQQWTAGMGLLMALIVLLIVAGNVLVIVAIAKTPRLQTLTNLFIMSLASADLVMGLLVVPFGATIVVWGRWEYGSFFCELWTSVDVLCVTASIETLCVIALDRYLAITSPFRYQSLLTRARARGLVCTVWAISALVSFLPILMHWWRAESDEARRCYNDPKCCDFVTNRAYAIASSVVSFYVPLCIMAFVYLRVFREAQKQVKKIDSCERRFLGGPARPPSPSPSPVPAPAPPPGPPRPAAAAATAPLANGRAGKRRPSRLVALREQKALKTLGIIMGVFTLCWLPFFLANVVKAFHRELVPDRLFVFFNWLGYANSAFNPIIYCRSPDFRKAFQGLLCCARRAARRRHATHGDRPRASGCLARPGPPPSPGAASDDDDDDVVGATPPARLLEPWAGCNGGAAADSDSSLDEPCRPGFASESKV
T2 sequence (P0DMS8 whole entry): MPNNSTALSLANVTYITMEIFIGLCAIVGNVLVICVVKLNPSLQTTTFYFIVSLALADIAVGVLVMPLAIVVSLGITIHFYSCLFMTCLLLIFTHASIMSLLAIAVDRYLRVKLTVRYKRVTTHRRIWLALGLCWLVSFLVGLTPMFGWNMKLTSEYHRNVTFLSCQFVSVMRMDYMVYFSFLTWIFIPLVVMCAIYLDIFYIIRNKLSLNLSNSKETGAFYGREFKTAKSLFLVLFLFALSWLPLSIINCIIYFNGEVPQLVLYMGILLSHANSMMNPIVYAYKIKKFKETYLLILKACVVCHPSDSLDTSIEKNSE
T4 sequence (P47211 whole entry): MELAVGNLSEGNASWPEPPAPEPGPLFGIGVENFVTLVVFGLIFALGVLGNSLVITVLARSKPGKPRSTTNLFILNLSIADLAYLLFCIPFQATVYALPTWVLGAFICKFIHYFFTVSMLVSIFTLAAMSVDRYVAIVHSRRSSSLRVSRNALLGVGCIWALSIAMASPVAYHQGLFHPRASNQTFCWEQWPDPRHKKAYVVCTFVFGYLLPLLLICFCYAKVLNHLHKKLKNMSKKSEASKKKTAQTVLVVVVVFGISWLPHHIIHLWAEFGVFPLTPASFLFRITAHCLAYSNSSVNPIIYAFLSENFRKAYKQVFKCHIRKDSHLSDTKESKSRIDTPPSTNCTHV

As to `CCC(CO)NCCOc1c(C)cccc1Cl` (centres unmarked) [Compound 4, R,S-2-((2-(2-chloro-6-methylphenoxy)ethyl)amino)butan-1-ol], the “% of control +/- SEM” value is listed as 26 +/- 3% with NIE-115 cells (holding potential -60 mV) and 55 +/- 5% in the data set on NIE-115 cells (holding potential -90 mV). For the same compound, the “Frings mice sound-induced seizures ED50” value with Frings mice is 6.05 (4.23–8.45) mg/kg. Moreover, the “% of control specific binding” value on PAC1 (PACAP) came out at 107.7%; on A3 it was 115.1%; on ETA, 130.9%; on GAL1, 123.5%; on β1, 64.4%. Further, the “% Control +/- SEM” value in the data set on NMDA came out at 63%.
On to `CCC(CO)NCCOc1c(C)cccc1Cl` (centres unmarked) [KM-408, R,S-2-((2-(2-chloro-6-methylphenoxy)ethyl)amino)butan-1-ol hydrochloride], for which the “lowering of diastolic blood pressure” value in [1] is listed as “approximately 21 mmHg”. Also, in [1], the “lowering of systolic blood pressure” value is “approximately 21 mmHg”. The IC50 against hNav1.3 sodium channel (10 Hz) was 13.1 µM; against hNav1.3 sodium channel (Inactivated state) it was less than 10 µM; against hNav1.3 sodium channel (Tonic block), 49.2 µM. Further, the 50% lethal dose (LD50) at 24 h in “Acute toxicity (LD50)” (mouse, mice) was 19.8 mg/kg; in “Acute toxicity (LD50)” (rat, rats) it was 22.6 mg/kg. Further, the LD50 at 72 h in “Acute toxicity (LD50)” (mouse, mice) came to 246 mg/kg; in the data set “Acute toxicity (LD50)” (rat, rats) it was 670 mg/kg. Further, the degradation in data set [2] (0.5 M HCl, 70 °C, 232 h) stood at 1.65%; in data set [2] (0.5 M NaOH, 70 °C, 232 h) it was 2.02%; in [2] (CuSO4, 192 h), 1.65%; in data set [2] (phosphate buffer pH 7.0, 25 °C, 240 h), 1.52%; in data set [2] (phosphate buffer pH 7.0, 70 °C, 168 h) it was 1.96%; in data set [2] (photodegradation, 96 h), 1.43%. Moreover, the degradation in [2] (reducing agent, 40 °C, 168 h) amounted to 1.50%. Moreover, the degradation products in data set [2] (H2O2, 168 h) is 1.84%.
